Measured values reported in PubChem BioAssay (NCI).
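All cell lines were grown in 96-well plates and treated with compound for 48 hours. At the TGI there is no net growth.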

Tests used:
Test in all cases: NCI-60 cell line screen, 48 h
SK-MEL-28 melanoma = system: SK-MEL-28 melanoma
T-47D breast = system: T-47D breast
CCRF-CEM leukemia = system: CCRF-CEM leukemia
HT29 colon = system: HT29 colon
MDA-MB-435 = system: MDA-MB-435
786-0 renal = system: 786-0 renal
SF-539 CNS = system: SF-539 CNS
DU-145 prostate = system: DU-145 prostate
NCI/ADR-RES ovarian = system: NCI/ADR-RES ovarian
ACHN renal = system: ACHN renal
NCI-H23 lung = system: NCI-H23 lung
OVCAR-8 ovarian = system: OVCAR-8 ovarian
COLO 205 colon = system: COLO 205 colon
SK-MEL-2 melanoma = system: SK-MEL-2 melanoma
MCF7 breast = system: MCF7 breast
SN12C renal = system: SN12C renal
HCT-15 colon = system: HCT-15 colon

Row | SMILES | TGI (SK-MEL-28 melanoma) [µM] | TGI (T-47D breast) [µM] | TGI (CCRF-CEM leukemia) [µM] | TGI (HT29 colon) [µM] | TGI (MDA-MB-435) [µM] | TGI (786-0 renal) [µM] | TGI (SF-539 CNS) [µM] | TGI (DU-145 prostate) [µM] | TGI (NCI/ADR-RES ovarian) [µM] | TGI (ACHN renal) [µM] | TGI (NCI-H23 lung) [µM] | TGI (OVCAR-8 ovarian) [µM] | TGI (COLO 205 colon) [µM] | TGI (SK-MEL-2 melanoma) [µM] | TGI (MCF7 breast) [µM] | TGI (SN12C renal) [µM] | TGI (HCT-15 colon) [µM]
1 | N#Cc1c(Nc2ccccc2)[n+]([O-])c2ccc(Cl)cc2[n+]1[O-] | > 100 | > 100 | > 27.2 | 8.22 | > 100 | 34 | 21.4 | > 96.4 | 8.15 | 68.5 | 17.4 | 10.7 | 8.03 | > 72 | > 35.2 | > 100 | 6.53
2 | O=C(CSCC(=O)N/N=C/c1ccncc1)N/N=C/c1ccncc1 | > 100 | > 100 | > 100 | > 100 | > 100 | > 100 | > 100 | > 100 | > 100 | > 100 | > 100 | > 100 |  | > 100 | > 100 | > 100 | > 100
3 | CC1(C)O[C@@H](CP(c2ccc3ccccc3c2)c2ccc3ccccc3c2)[C@H](CP(c2ccc3ccccc3c2)c2ccc3ccccc3c2)O1 | > 100 | > 100 | > 100 | > 100 | > 100 | > 100 |  | > 100 | > 100 | > 100 | > 100 | > 100 | > 100 | > 100 | > 100 | > 100 | > 100
4 | Cc1c(C=C(C#N)C#N)c(=O)n(C)c(=O)n1C | > 100 | > 100 | 94.8 | > 100 | > 100 | > 100 | > 100 | > 100 | > 100 | > 100 | > 100 | > 100 | > 100 | > 100 | > 100 | > 100 | > 100
5 | C=[N+](CNC(=O)CNC(=O)C(Cc1ccccc1)NC(=O)OC(C)(C)C)C(=O)CNC(=O)C(Cc1ccccc1)NC(=O)OC(C)(C)C (stereo not drawn) | > 100 | > 100 | > 100 | > 100 | > 100 | > 100 | > 100 | > 100 | > 100 | > 100 | > 100 | > 100 | > 100 | > 100 | > 100 | > 100 | > 100
6 | Cc1ccc2nnc(NS(=O)(=O)c3cc(C)c(Cl)cc3S)n2n1 | > 100 | > 100 | > 100 | > 100 | > 100 | > 100 | > 100 | > 100 | > 100 | > 100 |  | > 100 | > 100 | > 100 | > 100 | > 100 | > 100
7 | COc1cc(C2S/C(=C/c3ccccc3)C(=O)N2c2ccccn2)cc(OC)c1OC (stereo not drawn) | > 74 | 36.3 | > 100 | > 47 | 29.3 | 31.4 |  | 31.9 | 54 | 29.8 | 34 | 31.2 | > 78.8 | > 71.3 | > 57.9 | 33.6 | 36.4
8 | Nc1c(O)c(C(=O)O)cc2ccccc12 | > 100 | > 100 | > 100 | 31.8 | 33.4 | 36.4 | > 100 | 35.9 | > 100 | 64.3 | 65.3 | > 100 | 64.1 | 35 | 24.2 | > 100 | > 100
9 | COc1cc2c3c4c1OCc1c5c(cc(c1-4)CC3[N+](C)(C)CC2)OCO5 (stereo not drawn) | > 100 | > 100 | > 100 | > 100 | > 100 | > 63.5 | > 96.6 | > 100 | > 100 | > 100 | > 100 | > 100 | > 100 | > 100 | > 100 | 39.4 | > 100
10 | NC(=O)N/N=C/c1ccccc1O | > 100 | > 100 | > 100 | > 100 | > 100 | > 100 | > 100 | > 100 | > 100 | > 100 | > 100 | > 100 | > 100 | > 100 | > 100 |  | > 100
11 | Cc1ccc(NCc2nnc3c(-c4ccccc4)nc4ccccc4n23)cc1 | > 100 | 9.62 | > 100 | > 100 | > 100 | > 100 | > 100 | > 100 | > 100 | > 100 |  | > 100 | 86.6 | 65.5 | > 100 | > 100 | > 100
12 | Cc1ccc(C)c(C(=N)c2ccccc2Cc2ccccc2)c1 | 80.1 | 80.6 |  | 33.7 | 47.2 | 32.2 | 33.8 | 48.1 | > 100 | 35.7 | > 100 | > 100 | 66.9 | 32 | 32.4 | 32.2 | > 100
13 | C1COCCOP2(N3CC3)=NP(N3CC3)(=NP(N3CC3)(N3CC3)=N2)OCCOCCO1 (stereo not drawn) |  | > 100 | > 100 | > 100 | > 100 | > 100 | > 100 | > 100 | > 100 | > 100 | > 100 | > 100 | > 100 |  | > 100 | > 100 | > 100
14 | O=c1ccc2nc3ccc(O)cc3oc-2c1 |  | > 100 | > 100 | > 75.9 | 3.23 | > 79.6 | > 59.8 | 57.5 | > 100 | > 100 | 14.3 | > 100 | 24.9 | 57.7 | > 52.7 | > 100 | > 100
